The values that follow are results of earlier work, collected in patent US12552760B2, “Compounds for increasing the nicotinamide adenine dinucleotide in a subject and methods of use thereof” (The Board of Trustees of the University of Illinois, priority 2022, dated 2026).

The test system of one data set is HT22. As to conditions: 0.1 mM & 1.0 mM, 24 h; Koh, P. 2013; cited from earlier work.
Data set [1] deals with Sprague-Dawley rats. As to conditions: 500 mg/kg (i.p.) 2 h after MCAO for 22 hrs; Koh, P. 2013; cited from earlier work.
A further data set deals with 3xTgAD mice. Particulars: 40 mg/kg/d (p.o.) 8 months; Liu, D. et al. 2013; cited from earlier work.
A further data set has as its system cultured primary neurons. Particulars: 2-4 mM, 6 h; Liu, D. et al. 2013; cited from earlier work.
Data set [2] deals with Wistar rats. Particulars: 100, 300, 500 mg/kg (i.p.) 8 days; Sidhu, A. et al. 2018; cited from earlier work.
The subject of data set [3] is Brown Norway rats and C57BL/6 mice. As to conditions: 200-400 mg/kg/d (p.o., rats), 500 mg/kg/d (p.o., mice), various treatment times; Tribble J. R. et al. 2021; cited from earlier work.
In the next data set the test system is C57BL/6 mice. As to conditions: 125, 250, 500 mg/kg (i.p.) 1 day (acute), 5 days (sub-acute); Anderson, D. W. et al. 2008; cited from earlier work.
The subject of data set [4] is hSOD1^G93A mouse derived astrocytes and motor neurons. Particulars: NR or NMN, 5 mM, 24-72 h; Harlan, B. A. et al. 2019; cited from earlier work.
A further data set relates to CD1 mice. As to conditions: 300 mg/kg 30 minutes post ICH from tail veil for 24 h or 7 days with (300 mg/kg/d); Wei, C. C. et al. 2017; cited from earlier work.
Data set [5] deals with APPSwe/PSEN1dE9 mice. As to conditions: 100 mg/kg (s.c.) every other day for 28 days; Yao Z. et al. 2017; cited from earlier work.
Data set [6] relates to Wistar rats. As to conditions: 500 mg/kg/d (i.p.) 10 days; hippocampal slices treated with 10 μM oAβ1-42 for 6 h +/− 1 mM NMN; Wang, X. et al. 2016; cited from earlier work.
Data set [7] relates to APPSwe/PSEN1dE9 mice. Particulars: 100 mg/kg every other day for 28 days; Long, A. N. et al. 2015; cited from earlier work.
A further data set concerns CL2355 worms. As to conditions: 5 mM, 2 nematode generations; Fang, E. F. et al. 2019; cited from earlier work.
For data set [8], the system named is Sprague-Dawley rats. Particulars: 100 mg/kg (i.p.) every other day for 3 months; Chandrasekaran, K. et al. 2020; cited from earlier work.

Like-named read-outs stand apart in the source and are kept apart here.

Turning to `NC(=O)c1cccnc1` [NAM, nicotinamide], in the data set with HT22, the Neuroprotection entry is listed as “Neuroprotection” and the “hippocalcin (crucial neuronal protein) depletion” value is recorded as “Prevented”. In addition, in the data set on Sprague-Dawley rats [1], the Decreased infarct volume result is recorded as “volume by 60%” and the hippocalcin depletion entry is recorded as “Prevented”. Also, in the data set with 3xTgAD mice, the “Aβ and p-Tau” value is recorded as “Decreased Aβ”; the cognitive decline result was “Ameliorated”. The Neuroprotection entry in the data set with cultured primary neurons is recorded as “Neuroprotection”. For the same compound, in the data set with Wistar rats [2], the Neuroprotection entry was “Neuroprotection”, the motor function result is on record as “Improved motor” and the oxidative stress result is “Prevented”. Moreover, in [3], the Retinal ganglion neuroprotection result was “neuroprotection”, the metabolic disruption entry is listed as “Prevented” and the mitochondrial function result is recorded as “Improved”. The “dopamine concentration in both paradigms” value in the data set on C57BL/6 mice is given as “Recovered”.
For `NC(=O)c1ccc[n+]([C@@H]2O[C@H](COP(=O)([O-])O)[C@@H](O)[C@H]2O)c1` [NMN, nicotinamide mononucleotide], the “Nrf2 mediated Antioxidant Response Element activation” value in [4] is “Increased Nrf2”. In the data set with CD1 mice, the Neuroprotective entry was “Neuroprotective”; the acute brain injury entry is given as “Protected against”; the “motor function recovery over 7 days” value was “Enhanced motor”; the “oxidative stress and neuroinflammation” value was “Reduced”. Moreover, in the data set with APPSwe/PSEN1dE9 mice [5], the APP processing entry is listed as “Biased APP to α”, the Aβ aggregation result is on record as “· Decreased Aβ”, the cognitive impairments entry is on record as “Prevented” and the neuroinflammation entry was “Decreased”. In addition, the synaptic loss entry in the data set with APPSwe/PSEN1dE9 mice [5] was “Prevented”. In addition, in the data set on Wistar rats [6], the LTP result is recorded as “Improved LTP”; the “NAD^+ and ATP” value is listed as “· Restored NAD^+”; the Neuroprotection entry is listed as “Neuroprotection”; the oxidative stress entry is “Attenuated”. Besides, the “spatial learning and memory” value in the data set on Wistar rats [6] is on record as “Improved spatial”. In addition, in the data set with APPSwe/PSEN1dE9 mice [7], the APP levels result is “Decreased APP” and the mitochondrial deficits result is “Reversed”. In addition, in the data set with CL2355 worms, the “cognitive decline and memory impairment” value is on record as “Ameliorated”. Besides, in the data set on Sprague-Dawley rats [8], the Neuroprotective entry was “Neuroprotective”; the “brain NAD^+, metabolites, and neurotransmitters” value is listed as “Normalized brain”; the “hippocampal CA1 volume” value is reported as “Preserved”; the memory result is reported as “Improved memory”. Further, the mitochondrial function entry in the data set on Sprague-Dawley rats [8] is reported as “Improved”.
